Measured values taken from patent US20170058314A1, “NOVEL METHODOLOGY FOR IDENTIFYING ANTI-PERSISTER ACTIVITY AND ANTIMICROBIAL SUSCEPTIBILITY FOR BORRELIA BURGDORFERI AND OTHER BACTERIA” (priority 2014, published 2017).
≈ marks a conversion by molar mass, not a printed value. Marks after values point to notes of the source that are not given here.

What was measured:
[1] = test system: B. burgdorferi (growing, strain B31); assay: MIC determination, standard microdilution method; format: cell-based, Borrelia burgdorferi
[2] = test system: log phase and stationary phase B. burgdorferi culture; assay: Antibiotic exposure assay, SYBR Green I/PI (drugs alone and combinations); conditions: for Live cell %, ten day old stationary phase culture (in brackets): 10 μg/mL drugs or combinations
Experimental: To qualitatively determine the effect of antibiotics, 10 μL of each compound from the pre-diluted plate or pre-diluted stock was added to stationary phase B. burgdorferi culture in the 96-well plate. The final volume per well was adjusted to 100 μL at a concentration of 10 μg/mL for each antibiotic. Plates were sealed and placed in a 33° C. incubator for 7 days. The SYBR Green I/PI viability assay was used to assess the live and dead cells after antibiotic exposure as described (Feng, Wang, Shi, et al., 2014). Briefly, 10 μL of SYBR Green I (10,000×stock, Invitrogen) was mixed with 30 μL propidium iodide (PI, 20 mM) into 1.0 mL of sterile dH2O. Then, 10 μL of staining mixture was added to each well and mixed thoroughly. The plates were incubated at room temperature in the dark for 15 minutes followed by plate reading at excitation wavelength at 485 nm and the fluorescence intensity at 535 nm (green emission) and 635 nm (red emission) in microplate reader (HTS 7000 plus Bio Assay Reader, PerkinElmer Inc., USA). With least-square fitting analysis, the regression equation and regression curve of the relationship between percentage of live bacteria and green/red fluorescence ratios was obtained. The regression equation was used to calculate the percentage of live cells in each well of the 96-well plate.
To qualitatively determine the effect of antibiotics, 10 μL of each compound (final concentration 50 μM) from the pre-diluted plate or pre-diluted stock was added to round body form or stationary phase B. burgdorferi culture in the 96-well plate. The final volume per well was adjusted to 100 μL. Plates were sealed and placed in a 33° C. incubator for 7 days. The SYBR Green I/PI viability assay was used to assess the live and dead cells after antibiotic exposure as described (Feng, Wang, Shi, et al., 2014). Briefly, 10 μL of SYBR Green I (10,000×stock, Invitrogen) was mixed with 30 μL propidium iodide (PI, 20 mM, Sigma-Aldrich) into 1.0 mL of sterile dH2O. Then, 10 μL staining mixture was added to each well and mixed thoroughly. The plates were incubated at room temperature in the dark for 15 minutes followed by plate reading at excitation wavelength at 485 nm and the fluorescence intensity at 535 nm (green emission) and 635 nm (red emission) in microplate reader (HTS 7000 plus Bio Assay Reader, PerkinElmer Inc., USA). With least-square fitting analysis, the regression equation and regression curve of the relationship between percentage of live and dead bacteria as shown in green/red fluorescence ratios was obtained. The regression equation was used to calculate the percentage of live cells in each well of the 96-well plate.
Round body form and ten day old stationary phase (in brackets) B. burgdorferi culture was treated with 10 μg/mL drugs or their combinations for 7 days. Residual viable B. burgdorferi was calculated according to the regression equation and ratio of Green/Red fluorescence obtained by SYBR Green I/PI assay as described (Feng, Wang, Shi, et al., 2014). Direct microscopy counting was employed to rectify the results of the SYBR Green I/PI assay. […] Abbreviation: Dox, doxcycline; CefP, cefoperazone; DAP, daptomycin; CefM, cefmetazole; Scp, sulfachlorpyridazine; Art, artemisinin; Nft, nitrofurantoin.

[3] = test system: round body form of B. burgdorferi; assay: SYBR Green I/PI assay on amoxicillin-induced round body form; conditions: for Live cell %, round body form: 10 μg/mL drugs or combinations; for viability at 50 µM: Borreliella burgdorferi, 168 h, read-out: Residual viable cells (SYBR Green I/PI assay)
[4] = test system: stationary phase B. burgdorferi persisters (strain B31); assay: SYBR Green I/PI viability assay (plate reader), FDA-approved drug library screen; conditions: for Ratio of Green/Red fluorescence, Primary screening / Ratio of Green/Red fluorescence, Rescreening (first column) / Ratio of Green/Red fluorescence, Rescreening (second column): 7 days, stationary phase; for viability at 50 µM: Borreliella burgdorferi, 168 h, read-out: Residual viable cells (regression equation, SYBR Green I/PI assay)
[5] = test system: stationary phase B. burgdorferi persisters (strain B31); assay: epifluorescence microscope counting after SYBR Green I/PI staining, FDA drug screen; conditions: for viability at 50 µM: Borreliella burgdorferi, 168 h, read-out: Residual viable cells (epifluorescence microscope counting)
[6] = test system: S. aureus strains (Newman, USA300, CA-409, CA-127, NY-315); assay: Rapid SYBR Green/PI antibiotic susceptibility test; format: cell-based, Staphylococcus aureus
[7] = 50 μM, 7-day old stationary phase cells treated for 7 days

Compound	Live cell %, ten day old stationary phase culture (in brackets) ([2]; 7 days) [%]	Live cell %, round body form ([3]; 7 days) [%]	viability at 50 µM [3] [%]	Ratios of green/red fluorescence, Primary screening ([3]; round body form, 50 μM, 7 days)	Ratios of green/red fluorescence, Rescreening (first column) ([3]; round body form, 50 μM, 7 days)	Ratios of green/red fluorescence, Rescreening (second column) ([3]; round body form, 50 μM, 7 days)	Ratio of Green/Red fluorescence, Primary screening ([4]; 50 μM)	Ratio of Green/Red fluorescence, Rescreening (first column) ([4]; 50 μM)	Ratio of Green/Red fluorescence, Rescreening (second column) ([4]; 50 μM)	viability at 50 µM [4] [%]	viability at 50 µM [5] [%]	also measured
C[C@@H]1CC[C@H]2[C@@H](C)C(=O)O[C@@H]3O[C@@]4(C)CC[C@@H]1[C@]32OO4 [Artemisinin]	73	28	24	5.96	6.14	6.17						MIC ([1]; Borreliella burgdorferi, growing B. burgdorferi, read-out: MIC): 50 to 100 µg/mL (≈ 177 to 354 µM)
CC1(C)S[C@@H]2[C@H](NC(=O)Cc3ccccc3)C(=O)N2[C@H]1C(=O)O [Penicillin G]				6.33	6.51	6.33	7.41	7.68	7.92			Residual viable cells (SYBR Green I/PI assay) ([3]; round body form, 50 μM, 7 days): 38%; Residual viable cells (regression equation, SYBR Green I/PI assay) [4, 7]: 68%; Residual viable cells (epifluorescence microscope counting) [5, 7]: 75%
polymyxin B [Pmb]												Live Cell % (residual viable B. burgdorferi) ([2]; ten-day-old stationary phase culture enriched with micro-colonies, 10 μg/mL each drug, 7 days): 77% ^c
Nc1ccc(S(=O)(=O)Nc2ccc(Cl)nn2)cc1 [Scp, sulfachlorpyridazine]	68	38										residual viable / live cells, stated in text for stationary phase B. burgdorferi ([2]; drug combination test, refers to Table 6): about 38%
CO[C@@]1(NC(=O)CSCC#N)C(=O)N2C(C(=O)O)=C(CSc3nnnn3C)CS[C@@H]21 [Cefmetazole]	53	34	33	6.13	6.25	6.46	6.80	7.38	6.00	43		
CO/N=C(\C(=O)N[C@@H]1C(=O)N2C(C(=O)O)=C(COC(N)=O)CS[C@H]12)c1ccco1 [Cefuroxime]			34	6.29	6.28	6.31	6.59	6.84	6.67	43	49	
NC[C@H]1O[C@H](O[C@H]2[C@H](O)[C@@H](O[C@H]3O[C@H](CO)[C@@H](O)[C@H](N)[C@H]3O)[C@H](N)C[C@@H]2N)[C@H](O)[C@@H](O)[C@@H]1O [kanamycin]												cut-off (averaged proportion of killed cells) for resistant strains ([6]; 100 μg/mL, 1.5 hours): −0.01; cut-off (averaged proportion of killed cells) for susceptible strains ([6]; 100 μg/mL, 1.5 hours): −0.2; percent killed, resistant strain CA-127 ([6]; 30 minutes, kanamycin 25, ciprofloxacin 50 μg/mL): 5%; percent killed, resistant strain CA-409 ([6]; 30 minutes, kanamycin 25, ciprofloxacin 50, gentamicin 400 μg/mL): 5%; percent killed, resistant strain NY-315 ([6]; 30 minutes, kanamycin 25, erythromycin 400 μg/mL): 5%; percent killed, sensitive Newman strain ([6]; 30 minutes, kanamycin 25, erythromycin 400, ciprofloxacin 50, gentamicin 400 μg/mL): 27%
Nc1nc(/C(=C/CC(=O)O)C(=O)N[C@@H]2C(=O)N3C(C(=O)O)=CCS[C@H]23)cs1 [Ceftibuten]							6.81	6.78	7.27	49	51	
CCN(CCO)CCCC(C)Nc1ccnc2cc(Cl)ccc12 (stereo not drawn) [Hcq, hydroxychloroquine]												viability at 10 µg/mL ([2]; Borreliella burgdorferi, 168 h, read-out: Live Cell % (residual viable B. burgdorferi), ten-day-old stationary phase culture enriched with micro-colonies, 10 μg/mL each drug, 7 days): 71%
CN(C)CCn1nnnc1SCC1=C(C(=O)O)N2C(=O)[C@@H](NC(=O)Cc3csc(N)n3)[C@H]2SC1 [Cefotiam]							6.41	7.55	6.21	43	42	sensitivity of log phase / multiplying B. burgdorferi (words, FIG. 12) ([1]; MIC test): very sensitive
